# “Also recorded” adds a separate entry of the source.
# How the values were obtained:
# Format in all cases: cell-based
# MCF-7 cells [1] = test: Fate of S phase cells after hydroxyurea synchronization (BrdU uptake, mitotic index, viable cells)
# Description: To further examine the fate of cells in S phase upon IBR2 treatment, MCF-7 cells were synchronized at G1/S transition by hydroxyurea treatment and then released to allow S phase entry by washing out the reagents. These cells were treated with 20 μM IBR2 and BrdU, and BrdU uptake was measured for DNA synthesis, as well as the mitotic index and the number of viable cells during an 18-hour period. […] Moreover, the number of mock treated cells doubled at the completion of M phase, while the number of IBR2 treated cells decreased to around 50%.
# Cell culture, cell synchronization, BrdU labeling and determination of mitotic index: Breast cancer cell lines and MEF cell lines were cultured in high-glucose Dulbecco modified Eagle medium containing 10% fetal bovine serum. MCF-10A cells were cultured as described previously (Debnath et al., 2003). Cell synchronization at M phase was achieved by treatment with 0.1 μg/ml nocodazole for 8 hours. Cell synchronization at G1/S boundary was achieved by treatment with 1 mM hydroxyurea for 17 hours, 9 hours of release and again with 1 mM hydroxyurea for 14 hours. For BrdU labeling, cells were incubated with BrdU for 30 minutes and fixed for BrdU immunostaining using a BrdU labeling kit (Amersham Biosciences). For determination of mitotic index, cells were fixed in 4% formaldehyde in PBS containing 0.1 μg/ml DAPI for 30 minutes at room temperature and examined by fluorescence microscopy. 500-1000 nuclei per sample were counted to determine the number of M phase cells which only includes prometaphase, metaphase, anaphase and telophase.
# [2] = tested on: IR-induced Rad51 foci in MCF-7 breast cancer cells; test: IR-induced Rad51 foci formation (immunostaining); details: MCF-7 cells
# Description: These compounds were then tested for their effects on IR-induced Rad51 foci formation in MCF-7 breast cancer cells.
# CAPAN-1 = test: Sensitivity of BRCA2-truncated pancreatic cancer cell line; details: preliminary results
# Excerpt: The absence of BRCA2 in cells also appears to have a significant impact on Rad51 stability rendering them much more sensitive to IBR2 treatment. […] It is therefore contemplated that IBR2 may be particularly useful in treating cancer cells lacking functional BRCA2 (or having a reduced BRCA2 expression) albeit only a small fraction of cancer.
# MCF-7 cells [3] = test: Western blot of protein levels; details: 20 mM IBR2, time dependent
# Excerpt: To examine the impact of IBR2 on Rad51 protein expression, IBR2 treated MCF-7 cells was examined by straight western blot probed with a panel of antibodies against BRCA2, Rad51, Rad50, p84 and Rb. […] Consistent with our FACS analysis (FIG. 4A), the hypo-phosphorylated form of Rb, a marker for G1 phase, was the major form observed in the later time points, further confirming that IBR2 arrests cells at G1 phase (FIG. 4A). It has been reported that BRCA2 level is cell cycle dependent, which expresses low in G1 phase and peaks at G1/S boundary. Therefore the decreased level of BRCA2 in IBR2 treated cells may be due to G1 phase arrest. Different from BRCA2 protein, Rad51 protein is expressed constant throughout the cell cycle in MCF-7 cells (data not shown). Therefore, loss of Rad51 protein may be the direct effect of IBR2 treatment instead of the consequence of G1 arrest. To test whether IBR2 decreases Rad51 levels by destabilization, the inventors performed a stability assay by adding cyclohexamide (CHX) to inhibit de novo protein synthesis. […] Therefore, the inventors contemplate that IBR2 treated MCF-7 cells were arrested at G1, blocked at M phase entry, and died at S/G2 phase.
# Western blot analysis: Cells were treated with 20 mM IBR2 or 50 μg/ml cycloheximide (CHX) or 1 μM MG132 and harvested at different time points for western blot analysis. Cells resuspended in Lysis 250 buffer were subjected to three freeze/thaw cycles (liquid nitrogen/37° C.) and then centrifuged at 14,000 rpm for 2 minutes at room temperature. After measuring protein concentration, equal amount of total cellular proteins were subjected to SDS-PAGE and immunoblot analyses were performed as described previously (Chen et al., 1999). Antibodies used were: Rad51 (rabbit 5952); BRCA2 (rabbit PC146, Oncogene); Rb (mAb 11D7); Rad50 (mAb 13B3) and p84 (mAb 5E10). The intensity of bands was quantified by densitometry using Labworks 4.5 software. The relative value of the band intensity was calculated with respect to that of untreated sample after normalization with the p84 signal.
# [4] = tested on: g-H2AX foci in MCF-7 cells; test: IR-induced g-H2AX foci formation (immunostaining); details: 20 μM IBR2, 20 Gy
# Description: Since interaction between BRCA2 and Rad51 appears to be crucial for the formation of IR-induced Rad51 foci, it was contemplated that IBR2 may mimic BRC repeats to disrupt the BRCA2-Rad51 interaction and to thereby diminish the IR-induced Rad51 foci formation. To test this possibility, the number of the MCF-7 cells that formed IR-induced Rad51 foci was measured after IBR2 treatment. […] To test whether this effect applies to other molecules involved in DSB repair, the inventors then examined the IR-induced foci formation of g-H2AX, which is histone H2AX phosphorylated at serine 139 by ATM for the recruitment of NBS1, 53BP and BRCA1, but not Rad51.
# Immunostaining Rad51 and g-H2AX foci: MCF-7 cells were treated with 20 μM IBR2 for 7 or 19 hours and then g-irradiated at 20 Gy. Cells were incubated for an additional 5 hours with 20 μM IBR2, then fixed with 4% paraformaldehyde in PBS containing 0.5% Triton X-100. The fixed cells were incubated with a-Rad51 antibody (mAb 1F5) or a-g-H2AX antibody (Upstate). Rad51 and g-H2AX foci positive cells were subsequently counted as described (Chen et al., 1999).
# [5] = tested on: MCF-7 breast cancer cells; test: Survival of cells under combination with chemotherapeutic agents or irradiation
# Description: It is therefore likely that combination of IBR2 with other chemotherapeutic agents may have synergistic effects. To test this possibility, survival of MCF-7 breast cancer cells treated with 8 μM IBR2 plus different doses of VP-16, taxol, camptothecin, or gamma-irradiation was measured. […] Thus, it should be appreciated that a combination of IBR2 with other conventional therapeutic agents may have potential clinical applications in treating various cancers.
# To perform clonogenic survival assay, 1.5×10^3 MCF-7 cells were seeded in 10-cm dishes for 24 hours. Cells were then treated, in triplicate, with 5 μM IBR2 for 12 hours and then g-irradiated. Cells were continuously exposed to 5 μM IBR2 and re-fed every 4 days with fresh medium and IBR2. After 14-16 days, cells were fixed and stained with 2% methylene blue. Colonies consisting of more than 50 cells were counted.
smiles,measurement,setting,value
"O=S(=O)(Cc1ccccc1)N1C=Cc2ccccc2C1c1c[nH]c2ccccc12 (centres unmarked) [IBR2, 2-(benzylsulfonyl)-1-(1H-indol-3-yl)-1,2-dihydroisoquinoline]","DNA synthesis (BrdU uptake), S phase progression","MCF-7 cells [1]; 20 μM IBR2, 18-hour period",does not interfere with S phase progression
same,mitotic index (M phase entry),"MCF-7 cells [1]; 20 μM IBR2, 18-hour period",no or little IBR2 treated cells entered M phase
same,viability at 20 µM,"MCF-7 cells [1]; Homo sapiens, MCF7, 20 μM IBR2, at completion of M phase, read-out: number of viable cells",~50%
same,IR-induced Rad51 foci formation,[2],dramatically reduced Rad51 foci formation; also recorded: significantly reduced IR-induced Rad51 foci formation
same,sensitivity of CAPAN-1 to IBR2,CAPAN-1,significant sensitivity
same,BRCA2 protein level,MCF-7 cells [3],decreased dramatically
same,Rad50 protein level,MCF-7 cells [3],remained constant
same,Rad51 protein level,MCF-7 cells [3],decreased dramatically
same,p84 protein level,MCF-7 cells [3],remained constant
same,IR-induced g-H2AX foci formation,[4],no effect on g-H2AX foci formation
same,synergy with VP-16 on cell survival,[5]; 8 μM IBR2 plus different doses of VP-16,Significant synergistic effects
same,synergy with camptothecin on cell survival,[5]; 8 μM IBR2 plus different doses of camptothecin,Significant synergistic effects
same,synergy with gamma-irradiation on clonogenic survival,[5]; 8 μM IBR2 plus different doses of gamma-irradiation,Significant synergistic effects
same,synergy with taxol on cell survival,[5]; 8 μM IBR2 plus different doses of taxol,Significant synergistic effects

# From patent US8293764B2, “Compositions and methods for disruption of BRCA2-Rad51 interaction” (The Regents of the University of California, priority 2004, dated 2012)
